From patent US4431640A, “Process for inducing anabolic and androgenic activity in animals” (Roussel Uclaf, priority 1980, dated 1984)

Assays:
androgen receptor = biological target: T1, androgen receptor (Rattus norvegicus, UniProt P15207); assay: androgenic activity by hormonal receptor method (displacement of tritied R from prostate cytosol); assay type: binding, rats; settings: castrated male rat prostate cytosol, incubated at 0° C. for 2 hours, testosterone = 100
T1 construct: The prostate was removed from male rats castrated 24 hours earlier and it was homogenized; from tissue; host or cells: prostate cytosol (105,000 g supernatant) of male rats castrated 24 hours earlier
T1 sequence (P15207 1-902): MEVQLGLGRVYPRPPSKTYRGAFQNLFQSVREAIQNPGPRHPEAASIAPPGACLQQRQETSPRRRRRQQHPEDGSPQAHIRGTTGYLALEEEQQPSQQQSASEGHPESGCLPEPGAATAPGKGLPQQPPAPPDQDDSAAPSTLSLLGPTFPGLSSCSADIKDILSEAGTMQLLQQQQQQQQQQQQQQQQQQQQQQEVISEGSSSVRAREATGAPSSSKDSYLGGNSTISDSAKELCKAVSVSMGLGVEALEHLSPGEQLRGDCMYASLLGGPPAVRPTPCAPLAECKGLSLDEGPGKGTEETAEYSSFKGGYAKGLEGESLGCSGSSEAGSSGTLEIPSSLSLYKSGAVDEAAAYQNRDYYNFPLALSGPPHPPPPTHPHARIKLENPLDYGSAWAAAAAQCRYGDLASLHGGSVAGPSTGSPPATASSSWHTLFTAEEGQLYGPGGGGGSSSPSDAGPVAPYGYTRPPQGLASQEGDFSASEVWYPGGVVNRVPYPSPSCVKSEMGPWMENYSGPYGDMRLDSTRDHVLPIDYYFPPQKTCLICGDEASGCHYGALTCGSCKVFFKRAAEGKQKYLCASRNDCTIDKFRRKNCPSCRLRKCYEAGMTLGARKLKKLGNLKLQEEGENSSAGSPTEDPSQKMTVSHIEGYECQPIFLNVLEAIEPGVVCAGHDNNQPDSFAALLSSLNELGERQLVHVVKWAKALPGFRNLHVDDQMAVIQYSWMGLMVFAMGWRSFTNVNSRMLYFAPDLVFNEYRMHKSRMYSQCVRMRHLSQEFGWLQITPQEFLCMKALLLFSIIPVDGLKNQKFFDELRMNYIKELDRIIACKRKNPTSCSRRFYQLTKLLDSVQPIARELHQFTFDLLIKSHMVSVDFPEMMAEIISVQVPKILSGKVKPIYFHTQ
Procedure: The androgenic activity of the compound of Example 1 and 11β-propyl-17α-methyl-Δ^4,9 -estradiene-17β-ol-3-one (compound A) were compared by the hormonal receptor method of Raynaud et al [J. Ster. Biochem., Vol. 6 (1975), p. 615-622]. The prostate was removed from male rats castrated 24 hours earlier and it was homogenized in a buffered 10 mmole tromethamine solution containing 0.25 M of saccharose and a pH of 7.4 with hydrochloric acid. The homogenate was centrifuged at 105,000 g for one hour and the liquid surnageant or "cytosol" was adjusted to obtain a 1/5 (weight/volume) dilution.
The radioactivity of tritied product was determined after about 2 hours in the receptor by the technique of carbon-dextran (1.25%-0.625%) absorption. […] B/T max. is the percentage of tied tritied R product when the compound is not added. B/T min. is the percentage of tied tritied product R when the maximum amount of cold product R is added. […] The relative affinity of the test product or ARL was determined using the formula [formula]

calves of the FFPN race = assay: weight gain test in calves after percutaneous treatment; assay type: in vivo
Procedure: This test was effected with groups of calves of the FFPN race and all groups received the same amount of feed. The control group were untreated and the other group received percutaneously on day J and J+7 200 mg of the compound of Example 1. The weights of the animals were determined 7 days before the treatment (J-7), on the day of treatment (J), on the day of the second treatment (J+7) and one week after the second treatment (J+14) and the results are reported in the following Table.

| Compound | relative affinity (ARL) (androgen receptor) | average weight gain (calves of the FFPN race; 7 days after the test, J 14 to J 21, 200 mg percutaneously on J and J+7) | Average weight of calves (calves of the FFPN race; day J + 7, day of second treatment, 200 mg percutaneously on J and J+7) | Average weight of calves (calves of the FFPN race; day J + 14, one week after second treatment, 200 mg percutaneously on J and J+7) | Average weight of calves (calves of the FFPN race; day J - 7, 7 days before the treatment (baseline)) | Average weight of calves (calves of the FFPN race; day J, day of first treatment (200 mg percutaneously)) | average weight gain (calves of the FFPN race; table total (J to J + 14), 200 mg percutaneously on J and J+7) |
| --- | --- | --- | --- | --- | --- | --- | --- |
| C[C@H]1C[C@@]2(C)[C@@H](CC[C@]2(C)O)[C@@H]2CCC3=CC(=O)CCC3=C21 [Example 1, 11β,17α-dimethyl-Δ^4,9-estradiene-17β-ol-3-one] | 90 | 8.63 kg | 60.47 kg | 70.67 kg | 45.50 kg | 52.30 kg | 18.37 kg |
| CCC[C@H]1C[C@@]2(C)[C@@H](CC[C@]2(C)O)[C@@H]2CCC3=CC(=O)CCC3=C12 [product A, 11β-propyl-17α-methyl-Δ^4,9-estradiene-17β-ol-3-one, reference compound] | 22 |  |  |  |  |  |  |
